Experimental data published in US20260166039A1 (SCHRÖDINGER, INC., priority 2022, published 2026).
pIC50: −log10 of the molar value. Read-outs that look alike come from different tables or passages of the source.

Assays:
Wee1 kinase domain = molecular target: T1, Wee1 kinase domain (Homo sapiens, UniProt P30291); assay: Wee1 Kinase Biochemical Assay (ADP-Glo); conditions: 15 uM ATP
T1 construct: Wee1 kinase domain was purchased from Carna (catalog #05-177); purchased Carna 05-177
How it was run: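 Compounds tested against 1 nM Wee1 kinase domain in Tris buffer containing 20 mM MgCl2, BSA and 2 mM DTT, with 15 uM ATP and poly(Lys,Tyr) substrate for 4 h at 25 °C. Luminescent ADP detection gave percent inhibition, normalized to DMSO and saturating inhibitor.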

[1] = test system: phosphorylation of Cdc2 Y15 (Wee1 substrate) in A427 cells; assay: Phosphorylated Cdc2 MSD Electrochemiluminescence Assay; format: cell-based; conditions: Homo sapiens
How it was run: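 Read-out: percent residual phospho-Cdc2 Y15 relative to DMSO and positive-control Wee1 inhibitor, measured by MSD electrochemiluminescence capture/detection antibody assay in cell lysates. A427 cells received duplicate 3-fold compound dilution series 20 h post-seeding, with 6 h total incubation at 37 °C.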

[2] = class symbols, 1 nM Wee1 enzyme, 4 hours at 25° C.
[3] = A-427, class symbols, read-out: A427 pCDC2 MSD IC50

T1 sequence (P30291 299-569 limits assumed): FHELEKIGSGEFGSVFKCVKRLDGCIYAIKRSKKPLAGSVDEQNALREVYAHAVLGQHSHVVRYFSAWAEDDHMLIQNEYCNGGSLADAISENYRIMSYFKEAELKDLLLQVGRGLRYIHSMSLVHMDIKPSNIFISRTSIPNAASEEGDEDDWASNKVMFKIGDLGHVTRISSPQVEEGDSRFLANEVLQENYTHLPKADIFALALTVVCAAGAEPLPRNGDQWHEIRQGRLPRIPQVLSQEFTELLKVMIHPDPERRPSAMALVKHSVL

SMILES	pIC50 (Wee1 kinase domain; [2])	pIC50 [1, 3]	pIC50 (Wee1 kinase domain; Wee1 kinase domain, ADP-Glo)	pIC50 ([1]; A-427, pCDC2 MSD)
CN1C[C@@H]2C[C@H]1CN2c1ccc(Nc2ncc3c(n2)N(c2cccc(N4CCOC4=O)n2)[C@@H]2CC(C)(C)OC[C@]32C)cc1 (single isomer, unassigned) [Example 595]	> 8.00	6.00 to 7.00		
Cc1cncc(Nc2ncc3c(n2)N(c2cccc(N=S(C)(C)=O)n2)[C@@H]2CC(C)(C)OC[C@]32C)c1 (single isomer, unassigned) [Example 492]	> 8.00	> 7.00		
CC1(C)C[C@H]2N(c3cccc(N4CCCC4=O)n3)c3nc(Nc4ccc([C@@H]5CCNC5)cc4)ncc3[C@@]2(C)CO1 [Example 632, 1-(6-((4bR,8aR)-4b,7,7-trimethyl-2-((4-((S)-pyrrolidin-3-yl)phenyl)amino)-4b,7,8,8a-tetrahydropyrano[3′,4′:4,5]pyrrolo[2,3-d]pyrimidin-9(5H)-yl)pyridin-2-yl)pyrrolidin-2-one]	> 8.00	6.00 to 7.00		
CN1CC[C@H]2CN(c3ccc(Nc4ncc5c(n4)N(c4cccc(N=S(C)(C)=O)n4)[C@@H]4CC(C)(C)OC[C@]54C)cc3)C[C@H]21 (single isomer, unassigned) [Example 503]	> 8.00	> 7.00		
CN1CCC(n2cnc(Nc3ncc4c(n3)N(c3cccc(N=S(C)(C)=O)n3)[C@@H]3CC(C)(C)OC[C@]43C)c2)CC1 (single isomer, unassigned) [Example 205]			> 8.00	> 7.00
CN1Cc2cc(Nc3ncc4c(n3)N(c3cccc(N=S(C)(C)=O)n3)[C@@H]3CC(C)(C)OC[C@]43C)ccc2C2(CC2)C1 (single isomer, unassigned) [Example 107]			> 8.00	> 7.00
Cn1ccc(Nc2ncc3c(n2)N(c2cccc(P(C)(C)=O)n2)[C@@H]2CC(C)(C)OC[C@]32C)cc1=O (single isomer, unassigned) [Example 779]	> 8.00	> 7.00		
CNCc1cccc(N2c3nc(Nc4ccc(N5CCOCC5)cc4)ncc3[C@@]3(C)COC(C)(C)C[C@@H]23)n1 (single isomer, unassigned) [Example 5]			> 8.00	6.00 to 7.00
Cc1cc(Nc2ncc3c(n2)N(c2cccc(C(=O)N(C)C)n2)[C@@H]2CC(C)(C)OC[C@]32C)ccc1C1CCN(C)CC1 (single isomer, unassigned) [Example 585]	> 8.00	6.00 to 7.00		
Cc1cnc(Nc2ncc3c(n2)N(c2cccc(N=S(C)(C)=O)n2)[C@@H]2CC(C)(C)OC[C@]32C)cn1 (single isomer, unassigned) [Example 371]			> 8.00	6.00 to 7.00
CN1CC(c2ccc(Nc3ncc4c(n3)N(c3cccc(N=S(C)(C)=O)n3)[C@@H]3CC(C)(C)OC[C@]43C)cc2Cl)C1 (single isomer, unassigned) [Example 181]			> 8.00	> 7.00
CN1C[C@@H]2CN(c3ccc(Nc4ncc5c(n4)N(c4cccc(N6CCCC6=O)n4)[C@@H]4CC(C)(C)OC[C@]54C)cc3)C[C@@H]2C1 [Example 694, 1-(6-((4bR,8aR)-4b,7,7-trimethyl-2-((4-((3aR,6aS)-5-methylhexahydropyrrolo[3,4-c]pyrrol-2(1H)-yl)phenyl)amino)-4b,7,8,8a-tetrahydropyrano[3′,4′:4,5]pyrrolo[2,3-d]pyrimidin-9(5H)-yl)pyridin-2-yl)pyrrolidin-2-one]	> 8.00	6.00 to 7.00		
CNCc1cccc(N2c3nc(Nc4ccc([C@H]5CCNC5)cc4)ncc3[C@@]3(C)COC(C)(C)C[C@@H]23)n1 (single isomer, unassigned) [Example 452]	> 8.00	6.00 to 7.00		
CN1CC2(C1)CN(c1ccc(Nc3ncc4c(n3)N(c3cccc(P(C)(C)=O)n3)[C@@H]3CC(C)(C)OC[C@]43C)cc1)C2 (single isomer, unassigned) [Example 775]	> 8.00	6.00 to 7.00		
CNCc1cccc(N2c3nc(Nc4ccc([C@H]5CNC(=O)C5)cc4)ncc3[C@@]3(C)COC(C)(C)C[C@@H]23)n1 (single isomer, unassigned) [Example 61]			> 8.00	> 7.00
